Results from patent US4659741A, “β-[2-(halogenobenzyl)-phenoxy]-ethylamine derivatives” (Institut de Recherches Chimiques et Biologiques Appliquees …, priority 1983, dated 1987).
In brackets after ≈: the same amount, converted by molar mass. Entries after “also recorded” stand apart in the source; their conditions may differ. Like-named read-outs stand apart in the source and are kept apart here. Each block holds one compound with its values, some of them ahead of it.

How the values were obtained:
[1] = test system: Staphylococcus aureus London CIP A.238; experiment: Minimal inhibiting concentration (MIC), Gram+ strain (Table IV); type: cell-based; settings: for MIC: Staphylococcus aureus
Source text: (§1) A certain number of compounds according to the invention are given non-restrictively by way of illustration in tables I, II and III hereinafter. The minimal inhibiting concentrations (MIC) of these compounds vis-a-vis a Gram+bacteria (Staphylococcus aureus London) a Gram-bacteria (Escherichia coli) and a fungus (Candida albicans) are given hereinafter in table IV. In table V are tabulated the MIC values of two compounds according to the invention which are particularly interesting [compound B 673 (example 26) and compound B 674 (example 29)] vis-a-vis several strains.
(§2) The strains used are those of the catalogues of the "Institut Pasteur" of Paris (abbreviation: CIP), the "Centre International de Distribution de Souches et d'Information sur les Types Microbiens de Lausanne" (abbreviation: La) and the "American Type Culture Collection" (abbreviation: ATCC).
G^+ = Gram^+ strain: Staphylococcus aureus London CIP A.238

[2] = test system: Candida albicans CIP 1180; experiment: Minimal inhibiting concentration (MIC), fungus strain (Table IV); type: cell-based; settings: for MIC: Candida albicans, CIP1180, Candida albicans CIP 1180; for MIC C: Candida albicans CIP 1180
Source text: as §1, §2
C = fungus strain: Candida albicans CIP 1180

[3] = Toxicity, LD-50 mice (Table VI); settings: for LD50: mouse, in vivo
[4] = test system: Escherichia coli CIP 54.8; experiment: Minimal inhibiting concentration (MIC), Gram- strain (Table IV); type: cell-based; settings: CIP54
Source text: as §1, §2
G^- = Gram^- strain: Escherichia coli CIP 54.8

[5] = cited from earlier work
Gram+ bacteriae = settings: infectious diseases caused by Gram+ bacteriae; cited from earlier work
[6] = test system: Staphylococcus aureus ATCC 6538 P; experiment: MIC vis-a-vis several strains (Table V); type: cell-based; settings: ATCC6538
Source text: as §1, §2

[7] = test system: Branhamella catarrhalis la 987; experiment: MIC vis-a-vis several strains (Table V); type: cell-based; settings: Moraxella catarrhalis, LA987
Source text: as §1, §2

[8] = test system: Streptococcus pyogenes CIP A.241; experiment: MIC vis-a-vis several strains (Table V); type: cell-based; settings: CIPA.241
Source text: as §1, §2

[9] = test system: Corynebacterium diphteriae CIP A.102; experiment: MIC vis-a-vis several strains (Table V); type: cell-based; settings: CIPA.102
Source text: as §1, §2

[10] = test system: Streptococcus pyogenes la 147; experiment: MIC vis-a-vis several strains (Table V); type: cell-based; settings: LA147
Source text: as §1, §2

[11] = test system: Klebsiella pneumoniae la 433; experiment: MIC vis-a-vis several strains (Table V); type: cell-based; settings: LA433
Source text: as §1, §2

[12] = test system: Bacillus subtilis ATCC 6633; experiment: MIC vis-a-vis several strains (Table V); type: cell-based; settings: ATCC6633
Source text: as §1, §2

[13] = test system: Streptococcus faecalis CIP 53.152; experiment: MIC vis-a-vis several strains (Table V); type: cell-based; settings: Enterococcus faecalis, CIP53
Source text: as §1, §2

[14] = test system: Streptococcus pyogenes CIP 56.42; experiment: MIC vis-a-vis several strains (Table V); type: cell-based; settings: CIP56
Source text: as §1, §2

[15] = test system: Haemophilus influenzae CIP 5293; experiment: MIC vis-a-vis several strains (Table V); type: cell-based; settings: CIP5293
Source text: as §1, §2

[16] = test system: Listeria monocytogenes CIP 54153; experiment: MIC vis-a-vis several strains (Table V); type: cell-based; settings: CIP54153
Source text: as §1, §2

[17] = test system: Neisseria gonorrhoeae CIP A.52; experiment: MIC vis-a-vis several strains (Table V); type: cell-based; settings: CIPA.52
Source text: as §1, §2

[18] = test system: Neisseria meningitidis CIP 7310; experiment: MIC vis-a-vis several strains (Table V); type: cell-based; settings: CIP7310
Source text: as §1, §2

[19] = test system: Streptococcus pyogenes CIP 5641; experiment: MIC vis-a-vis several strains (Table V); type: cell-based; settings: CIP5641
Source text: as §1, §2

[20] = test system: Diplococcus pneumoniae la 209; experiment: MIC vis-a-vis several strains (Table V); type: cell-based; settings: Streptococcus pneumoniae, LA209
Source text: as §1, §2

Compound: CCN(CC)CCOc1ccc(C(C)C)cc1Cc1ccc(Cl)cc1Cl [Example 3]
MIC G^+ ([1]; listed as Ex 3): 16 μ g/ml | MIC [2]: 8 µg/mL (≈ 20.3 µM)

Compound: CCc1ccc(OCC[N+](CC)(CC)Cc2ccccc2)c(Cc2ccc(Cl)cc2Cl)c1 [Example 27]
LD50 [3]: 850 mg/kg | MIC [1]: 0.125 µg/mL | MIC [2]: 0.5 µg/mL | MIC [4]: 8 µg/mL

Compound: CC(C)(C)CC(C)(C)c1ccc(O)c(Cc2ccc(Cl)cc2Cl)c1 [B.11, 2-(2,4-dichlorobenzyl)-4-(1,1,3,3-tetramethylbutyl)-phenol]
water solubility / dispersibility [5]: not naturally water soluble nor water dispersible | effectiveness in the treatment of infectious diseases (Gram+ bacteriae): particularly effective in the treatment of infectious diseases caused by Gram+ bacteriae

Compound: CCC(C)(C)c1ccc(OCC[N+](CC)(CC)Cc2ccccc2)c(Cc2ccc(Cl)cc2Cl)c1 [Example 30]
LD50 [3]: > 1000 mg/kg | MIC [1]: 0.004 µg/mL | MIC [2]: 0.25 µg/mL | MIC [4]: 4 µg/mL

Compound: CC[N+](CC)(CCOc1ccc(C)cc1Cc1ccc(Cl)cc1Cl)Cc1ccccc1 [Example 26]
LD50 [3]: > 1000 mg/kg | MIC [1]: 0.25 µg/mL | MIC [6]: 0.78 µg/mL | MIC [7]: 0.78 µg/mL | MIC [8]: 0.78 µg/mL | MIC [9]: 25 µg/mL | MIC [10]: 0.78 µg/mL | MIC [11]: 25 µg/mL | MIC [12]: 1.56 µg/mL | MIC [13]: 3.12 µg/mL | MIC [14]: 0.78 µg/mL | MIC [15]: 0.78 µg/mL | MIC [16]: 1.56 µg/mL | MIC [17]: 0.78 µg/mL | MIC [18]: 0.78 µg/mL | MIC [19]: 0.78 µg/mL | MIC [20]: 1.56 µg/mL | MIC [2]: 4 µg/mL | MIC [4]: 32 µg/mL

Compound: CCCCCCCCCCCCCCCC[N+](C)(C)C [Example A-2, cetrymonium chloride, reference compound]
LD50 [3]: 750 mg/kg

Compound: CCN(CC)CCOc1ccc(C)cc1Cc1ccc(Cl)cc1Cl [Example 1]
MIC [1]: 12.5 µg/mL (≈ 34.1 µM) | MIC [4]: 50 µg/mL (≈ 136 µM)

Compound: CC[N+](CC)(CCOc1ccc(C(C)(C)C)cc1Cc1ccc(Cl)cc1Cl)Cc1ccccc1 [Example 29, N,N-diethyl-N-{2-[2-(2,4-dichlorobenzyl)-tertiobutylphenoxy]-ethyl}-N-benzylammonium chloride]
LD50 [3]: > 1000 mg/kg | MIC [1]: 0.015 µg/mL | MIC [6]: 0.78 µg/mL | MIC [7]: 0.78 µg/mL | MIC [8]: 0.78 µg/mL | MIC [9]: 3.12 µg/mL | MIC [10]: 0.78 µg/mL | MIC [11]: 6.25 µg/mL | MIC [12]: 0.78 µg/mL | MIC [13]: 0.78 µg/mL | MIC [14]: 0.78 µg/mL | MIC [15]: 0.78 µg/mL | MIC [16]: 0.78 µg/mL | MIC [17]: 0.78 µg/mL | MIC [18]: 0.78 µg/mL | MIC [19]: 0.78 µg/mL | MIC [20]: 0.78 µg/mL | MIC [2]: 0.125 µg/mL | MIC [4]: 4 µg/mL

Compound: CCc1ccc(OCCN(CC)CC)c(Cc2ccc(Cl)cc2Cl)c1 [Example 2]
MIC G^+ ([1]; listed as Ex 2): 64 μ g/ml | MIC C ([2]; listed as Ex 2): 64 μ g/ml

Compound: benzalkonium chloride [Example A-1, reference compound]
LD-50 mice ([3]; mice, route not given): 550 mg/kg

Compound: CCC(C)c1ccc(OCCN(CC)CC)c(Cc2ccc(Cl)cc2Cl)c1 (centres unmarked) [Example 4]
MIC G^+ ([1]; listed as Ex 4): 32 μ g/ml | MIC C ([2]; listed as Ex 4): 16 μ g/ml

Compound: CCCC[N+](CC)(CC)CCOc1ccc(C(C)(C)CC)cc1Cc1ccc(Cl)cc1Cl.[Br-] [Example 23, N,N-diethyl-N-{2-[2-(2,4-dichlorobenzyl)-4-(1,1-dimethylpropyl)-phenoxy]-ethyl}-N-butylammonium bromide]
LD50 [3]: > 1000 mg/kg | MIC [1]: 0.06 µg/mL | MIC [2]: 0.25 µg/mL | MIC [4]: 4 µg/mL

Compound: CCN(CC)CCOc1ccc(C(C)(C)C)cc1Cc1ccc(Cl)cc1Cl [Example 5, β-[2-(2,4-dichlorobenzyl)-4-tertiobutylphenoxy]-N,N-diethyl-ethylamin]
MIC [1]: 50 µg/mL (≈ 122 µM)

Compound: CCCCc1ccc(OCC[N+](CC)(CC)Cc2ccccc2)c(Cc2ccc(Cl)cc2Cl)c1 [Example 31]
LD50 [3]: > 1000 mg/kg | MIC [1]: 0.031 µg/mL | MIC [2]: 0.125 µg/mL | MIC [4]: 4 µg/mL

Now from value to compound, other results behind:

MIC G^+ ([1]; listed as Ex 13): 8 μ g/ml | MIC C ([2]; listed as Ex 13): 0.5 μ g/ml
Compound: CCC(C)c1ccc(OCCN(CC)CC)c(Cc2ccc(Cl)cc2Cl)c1 (centres unmarked) [Example 13]
spasmolytic properties (Spasmolytic properties): beneficial spasmolytic properties

MIC [1]: 0.015 µg/mL | MIC [2]: 1 µg/mL | MIC [4]: 16 µg/mL
Compound: CCCC[N+](CC)(CC)CCOc1ccc(C(C)(C)CC(C)(C)C)cc1Cc1ccc(Cl)cc1Cl [Example 24]

MIC [1]: 0.125 µg/mL | MIC [2]: 0.25 µg/mL | MIC [4]: 64 µg/mL
Compound: CC[N+](C)(CC)CCOc1ccc(C(C)(C)CC(C)(C)C)cc1Cc1ccc(Cl)cc1Cl [Example 22]

MIC G^+ ([1]; listed as Ex 15): 16 μ g/ml
Compound: CCN(CC)CCOc1ccc(C(C)(C)CC(C)(C)C)cc1Cc1ccc(Cl)cc1Cl [Example 15]
spasmolytic properties (Spasmolytic properties): beneficial spasmolytic properties

MIC [1]: 0.125 µg/mL | MIC [2]: 0.5 µg/mL | MIC [4]: 8 µg/mL
Compound: CCC(C)(C)c1ccc(OCC[N+](C)(CC)CC)c(Cc2ccc(Cl)cc2Cl)c1.[I-] [Example 21, N,N-diethyl-N-{2-[2-(2,4-dichlorobenzyl)-4-(1,1-dimethylpropyl)-phenoxy]-ethyl}-N-methylammonium iodide]

MIC [1]: 8 µg/mL | MIC [2]: 4 µg/mL | MIC [4]: 64 µg/mL
Compound: CCN(CC)CCOc1ccc(C(C)(C)CC)cc1Cc1ccc(Cl)cc1Cl.Cl [Example 14, β-[2-(2,4-dichlorobenzyl)-4-(1,1-dimethylpropyl)-phenoxy]-N,N-diethylethylamine hydrochloride]
spasmolytic properties (Spasmolytic properties): beneficial spasmolytic properties

MIC [1]: 64 µg/mL (≈ 147 µM) | MIC [2]: 64 µg/mL (≈ 147 µM) | MIC [4]: 64 µg/mL (≈ 147 µM)
Compound: CCCCCCc1ccc(OCCN(CC)CC)c(Cc2ccc(Cl)cc2Cl)c1 [Example 8]

MIC G^+ ([1]; listed as Ex 11): 8 μ g/ml | MIC C ([2]; listed as Ex 11): 8 μ g/ml
Compound: CCc1ccc(OCCN(CC)CC)c(Cc2ccc(Cl)cc2Cl)c1 [Example 11]
spasmolytic properties (Spasmolytic properties): beneficial spasmolytic properties

MIC G^+ ([1]; listed as Ex 12): 4 μ g/ml | MIC C ([2]; listed as Ex 12): 4 μ g/ml
Compound: CCN(CC)CCOc1ccc(C(C)C)cc1Cc1ccc(Cl)cc1Cl [Example 12]
spasmolytic properties (Spasmolytic properties; listed as B 805): beneficial spasmolytic properties; also recorded: The most interesting compound, as spasmolytic agent

MIC [1]: 16 µg/mL (≈ 43.7 µM) | MIC [4]: 64 µg/mL (≈ 175 µM)
Compound: CC(C)c1ccc(OCCN(C)C)c(Cc2ccc(Cl)c(Cl)c2)c1 [Example 10]

MIC [1]: 8 µg/mL (≈ 18.9 µM) | MIC [2]: 16 µg/mL (≈ 37.9 µM)
Compound: CCN(CC)CCOc1ccc(C(C)(C)CC)cc1Cc1ccc(Cl)cc1Cl [Example 6, β-[2-(2,4-dichlorobenzyl)-4-(1,1-dimethylpropyl)-phenoxy]-N,N-diethylethylamine]

MIC [1]: 0.015 µg/mL | MIC [2]: 0.25 µg/mL | MIC [4]: 8 µg/mL
Compound: CC[N+](CC)(CCOc1ccc(C(C)C)cc1Cc1ccc(Cl)cc1Cl)Cc1ccccc1 [Example 28]

MIC [1]: 0.125 µg/mL | MIC [2]: 0.5 µg/mL | MIC [4]: 16 µg/mL
Compound: CCCCCCc1ccc(OCC[N+](CC)(CC)Cc2ccccc2)c(Cc2ccc(Cl)cc2Cl)c1 [Example 32]

MIC [1]: 0.03 µg/mL | MIC [2]: 1 µg/mL
Compound: CC[N+](CC)(CCOc1ccc(C(C)(C)CC(C)(C)C)cc1Cc1ccc(Cl)cc1Cl)Cc1ccccc1 [Example 33]

MIC [1]: 25 µg/mL (≈ 53.8 µM)
Compound: CCN(CC)CCOc1ccc(C(C)(C)CC(C)(C)C)cc1Cc1ccc(Cl)cc1Cl [Example 9]

MIC [1]: 64 µg/mL (≈ 157 µM) | MIC [2]: 64 µg/mL (≈ 157 µM) | MIC [4]: 64 µg/mL (≈ 157 µM)
Compound: CCCCc1ccc(OCCN(CC)CC)c(Cc2ccc(Cl)cc2Cl)c1 [Example 7]
